From patent US12252503B2, “Cannabinoid derivatives” (priority 2019, dated 2025)

How the values were obtained:
human CB2 receptor = target: T1, human CB2 receptor (Homo sapiens, UniProt P34972); test: CB2 radioligand competitive binding assay ([3H]CP 55,940 displacement); conditions: for Selectivity CB2 (fold difference in selectivity between CB1 and CB2 binding): given in the column of the receptor with the higher binding affinity, 1.00 in both = about the same affinity; for IC50: membranes of CHO-K1 cells expressing human CB2 receptor, 0.6 nM [3H]CP55,940
T1 construct: host or cells: CHO-K1 (Chinese hamster ovary) cells, membrane preparation
Protocol: The membranes were prepared from CHO-K1 (Chinese hamster ovary) cells stably transfected with the human CB2 receptor (Cat. #ES-111-C; Perkin Elmer, Boston, MA). The cells were grown adherently and maintained in Ham's F12 medium containing 10% fetal bovine serum (FBS), penicillin, streptomycin and geneticin (G418) at 37° C. in a humid atmosphere of 5% CO2 following the manufacturer's instructions.
For membrane preparation the cells were washed with PBS and scraped off the plates in cold homogenization buffer (25 mM HEPES (pH 7.4), 2 mM EDTA) containing protease inhibitor cocktail (Sigma Cat. #P8340). The cell suspension was homogenized with a Pro-PK-01200D Polytron Homogenizer (Pro Scientific) and then centrifuged for 30 min at 120,000×g. The supernatant was discarded and the pellet was re-suspended in the homogenization buffer and stored at −80° C. until the time of use.
In this experiment, 3H radiolabeled CP 55,940, i.e. [3H]CP 55,940 (Perkin Elmer, Boston, MA), was used as a radioligand for the CB2 receptor to determine the binding affinity of compounds for the CB2 receptor (Scheme 4; above).
The competition binding experiments (single dose and dose-response) were performed by incubating 0.6 nM of [3H]CP55,940 (specific activity 101 Ci/mmol, Perkin Elmer) and different concentrations of compounds disclosed herein with membranes prepared as above from CHO-K1 cells expressing human CB2 receptor (1 μg of protein/well), 50 mM Tris-HCl (pH 7.4), 5 mM MgCl2, 1 mM CaCl2, and 2 mg/mL BSA.
For the single dose experiments, the compound stocks (usually 10 mM in DMSO) were diluted to working stocks in the binding buffer to give the final compound concentrations of 10 μM and 1 μM. For the dose-response experiments the test compounds were sequentially diluted to provide the desired concentration range for the IC50 determination. In each case the compounds were pre-incubated with the membrane for 20 min, before adding the radioligand.
After incubation with the radioligand for 60 min at 37° C., the incubation was terminated by rapid filtration of assay mixture through MultiScreen®HTS^+ 96-well filter plates (Millipore, Cat. #MSFCNXB), pre-soaked for 60 min with 50 mM Tris-HCl (pH 7.4) containing 0.33% polyethylenimine (PEI). The nonspecific binding (NSB) was determined in the presence of 10 μM unlabelled CP55,940. After drying the filter plate at 50° C. for at least 60 min, the filter-bound radioactivity was determined by scintillation spectrometry using the 1450 MicroBeta Plate Counter (Perkin Elmer, Boston, MA). From the dose-response experiments, the IC50 values were determined (see Table 1, CB2 IC50).

human CB1 receptor [1] = target: T2, human CB1 receptor (Homo sapiens, UniProt P21554); test: CB1 radioligand competitive binding assay ([3H]CP 55,940 displacement); conditions: for IC50: membranes of CHO-K1 cells expressing human CB1 receptor, 0.8 nM [3H]CP 55,940
T2 construct: host or cells: CHO-K1 (Chinese hamster ovary) cells, membrane preparation

human CB1 receptor [2] = target: T2, human CB1 receptor; test: PathHunter β-Arrestin functional assay, CB1 receptor, agonist mode; assay type: cell-based; conditions: PathHunter CHO-K1 CNR1 β-Arrestin cells, normalized to CP55,940
human CB1 receptor [3] = target: T2, human CB1 receptor; test: PathHunter β-Arrestin functional assay, CB1 receptor, antagonist mode; assay type: cell-based; conditions: range stated for the group of compounds, read-out: IC50 towards human CB1 receptor in antagonist mode

T2 sequence (P21554 whole entry): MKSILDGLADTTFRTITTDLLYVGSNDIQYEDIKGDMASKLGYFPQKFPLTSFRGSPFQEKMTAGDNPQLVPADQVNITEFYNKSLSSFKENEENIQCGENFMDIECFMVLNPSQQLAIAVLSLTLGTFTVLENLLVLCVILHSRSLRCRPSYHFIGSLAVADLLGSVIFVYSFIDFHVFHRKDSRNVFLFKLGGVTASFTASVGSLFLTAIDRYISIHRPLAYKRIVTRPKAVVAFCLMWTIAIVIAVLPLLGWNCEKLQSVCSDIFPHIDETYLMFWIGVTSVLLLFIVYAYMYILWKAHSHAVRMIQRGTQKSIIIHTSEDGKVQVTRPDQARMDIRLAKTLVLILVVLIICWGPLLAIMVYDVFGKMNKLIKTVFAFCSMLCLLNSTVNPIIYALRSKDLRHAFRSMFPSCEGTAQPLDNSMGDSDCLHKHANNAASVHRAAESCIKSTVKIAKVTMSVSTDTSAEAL
T1 sequence (P34972 whole entry): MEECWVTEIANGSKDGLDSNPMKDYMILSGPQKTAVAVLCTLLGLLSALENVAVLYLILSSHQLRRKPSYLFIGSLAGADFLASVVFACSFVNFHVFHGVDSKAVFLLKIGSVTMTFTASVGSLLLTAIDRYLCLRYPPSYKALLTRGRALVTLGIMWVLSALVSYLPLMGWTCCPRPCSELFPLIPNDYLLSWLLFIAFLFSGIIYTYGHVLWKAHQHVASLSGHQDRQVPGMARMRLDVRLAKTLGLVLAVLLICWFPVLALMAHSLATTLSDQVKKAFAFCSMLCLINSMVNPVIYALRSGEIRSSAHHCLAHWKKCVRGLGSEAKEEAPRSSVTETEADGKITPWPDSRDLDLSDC

SMILES	Selectivity CB2 (fold difference in selectivity between CB1 and CB2 binding) (human CB2 receptor) [fold]	IC50 (human CB2 receptor) [nM]	IC50 (human CB1 receptor [1]) [nM]	Selectivity CB1 (fold difference in selectivity between CB1 and CB2 binding) (human CB1 receptor [1]; given in the column of the receptor with the higher binding affinity, 1.00 in both = about the same affinity) [fold]	activity towards the human CB1 receptor in agonist mode (human CB1 receptor [2])	IC50 (human CB1 receptor [3]) [nM]
CCCCCc1cc(OP(=O)(OCC)c2ccccc2)c(-c2cccc(C)c2)c(OP(=O)(OCC)c2ccccc2)c1 (stereo not drawn) [34′a, diethyl (3′-methyl-4-pentyl-[1,1′-biphenyl]-2,6-diyl) bis(phenylphosphonate)]	1.95	1000 to 4990	1000 to 4990			
CCCCCc1cc(O)c(C2C=C(C)CCC2)c(OP(=O)(Cc2ccccc2)OC)c1 (stereo not drawn) [Example 4c, 6-hydroxy-5′-methyl-4-pentyl-1′,2′,3′,4′-tetrahydro-[1,1′-biphenyl]-2-yl methyl benzylphosphonate]	1.54	1000 to 4990	1000 to 4990			
C=C(C)C1CCC(C)=CC1c1c(O)cc(CCCCC)cc1OP(=O)(Cc1ccccc1)OC (stereo not drawn) [Example 4d, 6-hydroxy-5′-methyl-4-pentyl-2′-(prop-1-en-2-yl)-1′,2′,3′,4′-tetrahydro-[1,1′-biphenyl]-2-yl methyl benzylphosphonate]	1.00	< 500	< 500	1.00	minimal to no activity	780 to 3000
CCCCCc1cc(O)c(-c2cccc(C)c2)c(OP(=O)(OCC)c2ccccc2)c1 (stereo not drawn) [Example 34a, ethyl (6-hydroxy-3′-methyl-4-pentyl-[1,1′-biphenyl]-2-yl) phenylphosphonate]	10.26	< 500	1000 to 4990			
CCCCCc1cc(O)c(C2C=C(C)CCC2)c(OP(=O)(OCC)c2ccccc2)c1 (stereo not drawn) [Example 34c, ethyl (6-hydroxy-5′-methyl-4-pentyl-1′,2′,3′,4′-tetrahydro-[1,1′-biphenyl]-2-yl) phenylphosphonate]	1.69	1000 to 4990	1000 to 4990			
CCCCCc1cc(O)c(-c2cccc(C)c2)c(OP(=O)(Cc2ccccc2)OCC)c1 (stereo not drawn) [Example 35a, ethyl (6-hydroxy-3′-methyl-4-pentyl-[1,1′-biphenyl]-2-yl) benzylphosphonate]		1000 to 4990				
CCCCCc1cc(O)c(C2C=C(C)CCC2)c(OP(=O)(Cc2ccccc2)OCC)c1 (stereo not drawn) [Example 35c, ethyl (6-hydroxy-5′-methyl-4-pentyl-1′,2′,3′,4′-tetrahydro-[1,1′-biphenyl]-2-yl) benzylphosphonate]	3.25	1000 to 4990	≥ 5000			
CCCCCCC(C)(C)c1cc(O)c(C2C=C(C)CCC2)c(OP(=O)(OC)c2ccccc2)c1 (stereo not drawn) [Example 37c, 6-hydroxy-5′-methyl-4-(2-methyloctan-2-yl)-1′,2′,3′,4′-tetrahydro-[1,1′-biphenyl]-2-yl methyl phenylphosphonate]					minimal to no activity	780 to 3000
C=C(C)C1CCC(C)=CC1c1c(O)cc(C(C)(C)CCCCCC)cc1OP(=O)(OC)c1ccccc1 (stereo not drawn) [Example 37d, 6-hydroxy-5′-methyl-4-(2-methyloctan-2-yl)-2′-(prop-1-en-2-yl)-1′,2′,3′,4′-tetrahydro-[1,1′-biphenyl]-2-yl methyl phenylphosphonate]	2.02	< 500	500 to 990		minimal to no activity	780 to 3000
CCCCCCC(C)(C)c1cc(O)c(C2C=C(C)CCC2)c(OP(=O)(Cc2ccccc2)OC)c1 (stereo not drawn) [Example 38c, 6-hydroxy-5′-methyl-4-(2-methyloctan-2-yl)-1′,2′,3′,4′-tetrahydro-[1,1′-biphenyl]-2-yl methyl benzylphosphonate]	4.96	500 to 990	1000 to 4990		minimal to no activity	780 to 3000
C=C(C)C1CCC(C)=CC1c1c(O)cc(C(C)(C)CCCCCC)cc1OP(=O)(Cc1ccccc1)OC (stereo not drawn) [Example 38d, 6-hydroxy-5′-methyl-4-(2-methyloctan-2-yl)-2′-(prop-1-en-2-yl)-1′,2′,3′,4′-tetrahydro-[1,1′-biphenyl]-2-yl methyl benzylphosphonate]	1.82	< 500	500 to 990		minimal to no activity	780 to 3000
C=C(C)C1CCC(C)=CC1c1c(O)cc(C(C)(C)CCCCCC)cc1OP(=O)(Cc1ccccc1)OCC (stereo not drawn) [Example 39d, ethyl (6-hydroxy-5′-methyl-4-(2-methyloctan-2-yl)-2′-(prop-1-en-2-yl)-1′,2′,3′,4′-tetrahydro-[1,1′-biphenyl]-2-yl) benzylphosphonate]	1.10	500 to 990	500 to 990			
